Source: patent US20220387276A1, “Composition Comprising Oils, Free Fatty Acids And Squalene” (Clariant International Ltd., priority 2021, published 2022)

Type: physicochemical
Description: The oxidative stability at 90° C. was determined according to DIN EN ISO 6886 for the blend of Example 1 and compared with the oxidative stability of squalene.

- Induction time (oxidative stability): 4.84 h
Compound: CC(C)=CCC/C(C)=C/CC/C(C)=C/CC/C=C(\C)CC/C=C(\C)CCC=C(C)C [squalene]
